We go through seven compounds from publication PMC10296591, “Potent GST Ketosteroid Isomerase Activity Relevant to Ecdysteroidogenesis in the Malaria Vector Anopheles gambiae” (Biomolecules, 2023).

Each structure is given as a SMILES string.

Common to all, as to type: biochemical
For assay [1], the target named is T1, Nobo (Anopheles gambiae, UniProt Q8WQJ5).
T1 construct: gene GSTe8
T1 sequence (Q8WQJ5 1-217): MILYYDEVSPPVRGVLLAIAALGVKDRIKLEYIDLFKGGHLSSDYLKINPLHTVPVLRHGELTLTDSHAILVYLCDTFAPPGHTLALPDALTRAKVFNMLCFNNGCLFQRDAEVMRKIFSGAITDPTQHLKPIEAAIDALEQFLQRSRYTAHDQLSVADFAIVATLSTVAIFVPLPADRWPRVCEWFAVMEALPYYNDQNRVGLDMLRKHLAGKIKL
Description: spectrophotometric specific activity of purified enzyme.

In assay [2] the target is T1, Nobo. Description: steady-state kinetics of double-bond isomerization by purified enzyme (kcat/Km).
The target of a further assay is T2, Nobo D111N (Anopheles gambiae, UniProt Q8WQJ5, D111N).
T2 construct: gene GSTe8; N-terminal hexahistidine tag
Briefly: spectrophotometric inhibition assay of purified mutant enzyme with DCNB and glutathione.

For assay [3], the target named is T1, Nobo. Description: spectrophotometric inhibition assay of purified enzyme with DCNB and glutathione.

In the case of `S=C=NCCc1ccccc1` [PEITC, phenethyl isothiocyanate], the specific activity at Nobo [1] came to 0.4 ± 0.1 μmol/min per mg.
Consider `C[C@]12CCC(=O)CC1=CC[C@@H]1[C@@H]2CC[C@]2(C)C(=O)CC[C@@H]12` [5-AD, 5-androsten-3,17-dione], for which, on Nobo [2], the “steady-state kinetics of double-bond isomerization by purified enzyme (kcat/Km)” value was “(6.9 ± 0.3) × 10^6 M^−1s^−1”.
`CC(C)(OO)c1ccccc1` [CuOOH, cumene hydroperoxide] had a specific activity at Nobo [1] of 5.0 ± 0.5 μmol/min per mg.
Turning to `C=CCN=C=S` [AITC, allyl isothiocyanate], the specific activity at Nobo [1] is on record as 3.3 ± 0.4 μmol/min per mg.
A word on the IC50: it is the concentration that gives 50% inhibition. With `C[C@]12CC[C@@H]3c4ccc(O)cc4CC[C@H]3[C@@H]1CC[C@@H]2O` [17β-estradiol], the IC50 against Nobo D111N amounted to 15.5 ± 6 µM; against Nobo [3] it was 0.17 ± 0.03 µM.
Consider `O=[N+]([O-])c1ccc(Cl)c(Cl)c1` [DCNB, 1,2-dichloro-4-nitrobenzene], for which, on Nobo [1], the specific activity came out at 16.4 ± 1.9 μmol/min per mg.
On Nobo [1], `O=[N+]([O-])c1ccc(Cl)c([N+](=O)[O-])c1` [CDNB, 1-chloro-2,4-dinitribenzene] had a specific activity of 24.7 ± 3.4 μmol/min per mg.
